From patent US9914730B2, “Azaquinazoline inhibitors of Atypical protein Kinase C” (Ignyta, Inc., priority 2012, dated 2018)
pIC50: −log10 of the molar value.

Molecular target: T1, full-length human PKCι (Homo sapiens, UniProt P41743)
T1 construct: Recombinant, full-length human PKCι expressed in Sf21 insect cells is also commercially available; purchased; host or cells: Sf21 insect cells
T1 sequence (P41743 1-596): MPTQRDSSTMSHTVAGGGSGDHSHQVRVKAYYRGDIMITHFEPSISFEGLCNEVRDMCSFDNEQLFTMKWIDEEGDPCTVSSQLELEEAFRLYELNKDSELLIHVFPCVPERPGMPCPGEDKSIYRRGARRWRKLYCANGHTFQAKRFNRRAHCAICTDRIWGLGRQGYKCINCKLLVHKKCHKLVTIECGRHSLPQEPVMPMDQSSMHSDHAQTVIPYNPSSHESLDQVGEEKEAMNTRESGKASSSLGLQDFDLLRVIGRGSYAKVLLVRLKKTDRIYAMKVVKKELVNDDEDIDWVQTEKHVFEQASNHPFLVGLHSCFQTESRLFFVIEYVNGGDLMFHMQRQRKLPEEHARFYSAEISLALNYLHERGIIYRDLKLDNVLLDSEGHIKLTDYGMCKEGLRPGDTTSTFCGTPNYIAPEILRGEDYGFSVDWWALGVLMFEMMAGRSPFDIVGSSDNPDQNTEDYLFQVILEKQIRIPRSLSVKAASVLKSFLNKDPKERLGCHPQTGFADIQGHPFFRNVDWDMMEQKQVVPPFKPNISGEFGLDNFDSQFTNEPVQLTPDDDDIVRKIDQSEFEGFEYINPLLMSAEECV
Assay: PKCι IC50 IMAP assay, full-length PKCι at 150 μM ATP
Type: biochemical
Details: read-out: IC50 in IMAP assay against full length PKCi at 150 μM ATP
Summary of the method: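 IMAP fluorescence polarisation (ex 485/em 530 nm) read-out; % inhibition set from no-compound (0%) and no-enzyme (100%) controls, IC50 from dose-response curve fit. Sf21-expressed full-length enzyme ~15 pM, 100 nM FAM peptide, ATP 150 μM (5× KM^APP), 60 min at RT.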

pIC50 | SMILES
> 7.00 | Fc1cc(F)c(F)c(Nc2cc(-c3nc(N4CCNCC4)c4c(C5CCC5)cncc4n3)ccn2)n1 [Example 786, [4-(5-Cyclobutyl-4-piperazin-1-yl-pyrido[3,4-d]pyrimidin-2-yl)-pyridin-2-yl]-(3,4,6-trifluoro-pyridin-2-yl)-amine]
> 7.00 | Fc1cccnc1-c1cc2c(-c3nc(N4CCNCC4)c4c(C5CC5)cncc4n3)ccnc2[nH]1 [Example 2179, 5-Cyclopropyl-2-[2-(3-fluoro-pyridin-2-yl)-1H-pyrrolo[2,3-b]pyridin-4-yl]-4-piperazin-1-yl-pyrido[3,4-d]pyrimidine]
6.00 to 7.00 | Fc1cnc(Nc2cc(-c3nc(NC4CCNCC4F)c4c(C5CC5)cncc4n3)ccn2)c(F)c1 (centres unmarked) [Example 2186, {5-Cyclopropyl-2-[2-(3,5-difluoro-pyridin-2-ylamino)-pyridin-4-yl]-pyrido[3,4-d]pyrimidin-4-yl}-(3-fluoro-piperidin-4-yl)-amine]
> 7.00 | c1cc(-c2nc(N3CCNCC3)c3c(C4CCC4)cncc3n2)c2cc[nH]c2n1 [Example 2082, 5-Cyclobutyl-4-piperazin-1-yl-2-(1H-pyrrolo[2,3-b]pyridin-4-yl)-pyrido[3,4-d]pyrimidine]
> 7.00 | CC(=O)Nc1cc(-c2nc(N3CCN[C@@H](COCc4ccccc4)C3)c3c(C4CC4)cncc3n2)ccn1 [Example 768, N-{4-[4-((R)-3-Benzyloxymethyl-piperazin-1-yl)-5-cyclopropyl-pyrido[3,4-d]pyrimidin-2-yl]-pyridin-2-yl}-acetamide]
> 7.00 | c1ccc2nc(Nc3cc(-c4nc(N5CCNCC5)c5c(C6CC6)cncc5n4)ccn3)ccc2c1 [Example 2078, [4-(5-Cyclopropyl-4-piperazin-1-yl-pyrido[3,4-d]pyrimidin-2-yl)-pyridin-2-yl]-[D4],[D3]uinolin-2-yl-amine]
> 7.00 | O[C@@H]1Cc2ccccc2[C@@H]1Nc1cc(-c2nc(N3CCNCC3)c3c(C4CC4)cncc3n2)ccn1 [Example 2140, (1S,2R)-1-[4-(5-Cyclopropyl-4-piperazin-1-yl-pyrido[3,4-d]pyrimidin-2-yl)-pyridin-2-ylamino]-indan-2-ol]
> 7.00 | Cn1cc(-c2ccc(Nc3cc(-c4nc(N5CCNCC5)c5c(C6CC6)cncc5n4)ccn3)c(F)c2)cn1 [Example 2130, [4-(5-Cyclopropyl-4-piperazin-1-yl-pyrido[3,4-d]pyrimidin-2-yl)-pyridin-2-yl]-[2-fluoro-4-(1-methyl-1H-pyrazol-4-yl)-phenyl]-amine]
5.00 to 6.00 | O[C@@H]1CCCN(c2nc(-c3ccnc(Nc4cccc(F)n4)c3)nc3cncc(C4CC4)c23)C1 [Example 806, (R)-1-{5-Cyclopropyl-2-[2-(6-fluoro-pyridin-2-ylamino)-pyridin-4-yl]-pyrido[3,4-d]pyrimidin-4-yl}-piperidin-3-ol]
6.00 to 7.00 | c1cc(Nc2cc(-c3nc(N4CCCC4)c4c(C5CC5)cncc4n3)ccn2)cc(N2CCNCC2)c1 [Example 766, [4-(5-Cyclopropyl-4-pyrrolidin-1-yl-pyrido[3,4-d]pyrimidin-2-yl)-pyridin-2-yl]-(3-piperazin-1-yl-phenyl)-amine]

The remaining lines, values behind:

SMILES | pIC50
FC(F)(F)CNc1cc(-c2nc(N3CCNCC3)c3c(C4CC4)cncc3n2)ccn1 [Example 532, [4-(5-Cyclopropyl-4-piperazin-1-yl-pyrido[3,4-d]pyrimidin-2-yl)-pyridin-2-yl]-(2,2,2-trifluoro-ethyl)-amine] | > 7.00
COc1cncc2nc(-c3ccnc(NC4CCCC4)c3)nc(N3CCNCC3)c12 [Example 241, Cyclopentyl-[4-(5-methoxy-4-piperazin-1-yl-pyrido[3,4-d]pyrimidin-2-yl)-pyridin-2-yl]-amine] | > 7.00
COc1cncc2nc(-c3ccnc(Nc4ccc(N5CCOCC5)cc4)c3)nc(N[C@@H]3CCNC3)c12 [Example 229, {5-Methoxy-2-[2-(4-morpholin-4-yl-phenylamino)-pyridin-4-yl]-pyrido[3,4-d]pyrimidin-4-yl}-(R)-pyrrolidin-3-yl-amine] | > 7.00
COc1cncc2nc(-c3ccnc(Nc4ccccc4)c3)nc(N3CCN[C@H](CF)C3)c12 [Example 235, {4-[4-((S)-3-Fluoro-methyl-piperazin-1-yl)-5-methoxy-pyrido[3,4-d]pyrimidin-2-yl]-pyridin-2-yl}-phenyl-amine] | 6.00 to 7.00
COc1cncc2nc(-c3ccnc(Nc4cnccn4)c3)nc(N3CCNCC3)c12 [Example 201, [4-(5-Methoxy-4-piperazin-1-yl-pyrido[3,4-d]pyrimidin-2-yl)-pyridin-2-yl]-pyrazin-2-yl-amine] | > 7.00
c1cc2c(N[C@@H]3CCNC3)nc(-c3ccnc(Nc4ccc(N5CCOCC5)cn4)c3)nc2cn1 [Example 357, {2-[2-(5-Morpholin-4-yl-pyridin-2-ylamino)-pyridin-4-yl]-pyrido[3,4-d]pyrimidin-4-yl}-(R)-pyrrolidin-3-yl-amine] | > 7.00
COc1cncc2nc(-c3ccnc(Nc4ccccc4)c3)nc(N3CCN[C@@H](C(C)C)C3)c12 [Example 224, {4-[4-((S)-3-Isopropyl-piperazin-1-yl)-5-methoxy-pyrido[3,4-d]pyrimidin-2-yl]-pyridin-2-yl}-phenyl-amine] | > 7.00
CC(=O)NC1CCN(c2nc(-c3ccnc(Nc4c(F)cccc4F)c3)nc3cncc(C4CC4)c23)C1 (centres unmarked) [Example 713, N-(1-{5-Cyclopropyl-2-[2-(2,6-difluoro-phenylamino)-pyridin-4-yl]-pyrido[3,4-d]pyrimidin-4-yl}-pyrrolidin-3-yl)-acetamide] | 6.00 to 7.00
Fc1ccnc(Nc2cc(-c3nc(N4CCNCC4)c4c(C5CC5)cncc4n3)ccn2)c1 [Example 756, [4-(5-Cyclopropyl-4-piperazin-1-yl-pyrido[3,4-d]pyrimidin-2-yl)-pyridin-2-yl]-(4-fluoro-pyridin-2-yl)-amine] | > 7.00
COc1cncc2nc(-c3ccnc(Nc4cccc(F)n4)c3)nc(N3CC[C@H](CO)C3)c12 [Example 470, ((S)-1-{2-[2-(6-Fluoro-pyridin-2-ylamino)-pyridin-4-yl]-5-methoxy-pyrido[3,4-d]pyrimidin-4-yl}-pyrrolidin-3-yl)-methanol] | 5.00 to 6.00
N#Cc1ccnc(Nc2cc(-c3nc(N4CC[C@H](O)[C@H](O)C4)c4c(C5CC5)cncc4n3)ccn2)c1 (stereo in doubt) [Example 487, 2-{4-[5-Cyclopropyl-4-((3R,4S)-3,4-dihydroxy-piperidin-1-yl)-pyrido[3,4-d]pyrimidin-2-yl]-pyridin-2-ylamino}-isonicotinonitrile] | > 7.00
CN1CCC(N(C)c2nc(-c3ccnc4[nH]c(C(F)(F)F)cc34)nc3cncc(C4CC4)c23)CC1 [Example 2081, [5-Cyclopropyl-2-(2-trifluoromethyl-1H-pyrrolo[2,3-b]pyridin-4-yl)-pyrido[3,4-d]pyrimidin-4-yl]-methyl-(1-methyl-piperidin-4-yl)-amine] | > 7.00
COCCNC(=O)C1CCN(c2nc(-c3ccnc(Nc4c(F)cccc4F)c3)nc3cncc(C4CC4)c23)CC1 [Example 739, 1-{5-Cyclopropyl-2-[2-(2,6-difluoro-phenylamino)-pyridin-4-yl]-pyrido[3,4-d]pyrimidin-4-yl}-piperidine-4-carboxylic acid (2-methoxy-ethyl)-amide] | 6.00 to 7.00
COc1cncc2nc(-c3ccnc(Nc4ccc(C)cn4)c3)nc(N3CCNCC3)c12 [Example 364, [4-(5-Methoxy-4-piperazin-1-yl-pyrido[3,4-d]pyrimidin-2-yl)-pyridin-2-yl]-(5-methyl-pyridin-2-yl)-amine] | > 7.00
COCCN1CCN(c2nc(-c3ccnc(Nc4ccccc4)c3)nc3cncc(C4CC4)c23)CC1 [Example 661, (4-{5-Cyclopropyl-4-[4-(2-methoxy-ethyl)-piperazin-1-yl]-pyrido[3,4-d]pyrimidin-2-yl}-pyridin-2-yl)-phenyl-amine] | 5.00 to 6.00
c1ccc(-n2cc(Nc3cc(-c4nc(N5CCNCC5)c5c(C6CC6)cncc5n4)ccn3)cn2)cc1 [Example 492, [4-(5-cyclopropyl-4-piperazin-1-yl-pyrido[3,4-d]pyrimidin-2-yl)-pyridin-2-yl]-(1-phenyl-1H-pyrazol-4-yl)-amine] | > 7.00
c1cncc(Nc2cc(-c3nc(N[C@@H]4CCNC4)c4ccncc4n3)ccn2)c1 [Example 376, {2-[2-(Pyridin-3-ylamino)-pyridin-4-yl]-pyrido[3,4-d]pyrimidin-4-yl}-(R)-pyrrolidin-3-yl-amine] | 6.00 to 7.00
OCC1CN(c2nc(-c3ccncc3)nc3c(Cl)nccc23)C1 [Example 73, {1-[8-chloro-2-(pyridin-4-yl)-pyrido[3,4-d]-pyrimidin-4-yl]-azetidin-3-yl}-methanol] | 4.40 to 5.00
NC(=O)Cc1cccc(Nc2cc(-c3nc(N[C@@H]4CCNC4)c4ccncc4n3)ccn2)c1 [Example 316, 2-(3-{4-[4-((R)-Pyrrolidin-3-ylamino)-pyrido[3,4-d]pyrimidin-2-yl]-pyridin-2-ylamino}-phenyl)-acetamide] | 6.00 to 7.00
